According to US11260049B2, “TRPV4 antagonists” (GlaxoSmithKline Intellectual Property (No. 2) Limited, priority 2016, dated 2022):
Counter-ions that a name gives are not always drawn.

The compounds below were run against human TRPV4 (Homo sapiens (Human), UniProt Q9HBA0) (assay: FLIPR assay for hTRPV4 expressed in BHK cells). Conditions: at least one set of experimental runs; TRPV4 FLIPR assay; read-out: average IC50.
Sequence of human TRPV4 (Q9HBA0 whole entry): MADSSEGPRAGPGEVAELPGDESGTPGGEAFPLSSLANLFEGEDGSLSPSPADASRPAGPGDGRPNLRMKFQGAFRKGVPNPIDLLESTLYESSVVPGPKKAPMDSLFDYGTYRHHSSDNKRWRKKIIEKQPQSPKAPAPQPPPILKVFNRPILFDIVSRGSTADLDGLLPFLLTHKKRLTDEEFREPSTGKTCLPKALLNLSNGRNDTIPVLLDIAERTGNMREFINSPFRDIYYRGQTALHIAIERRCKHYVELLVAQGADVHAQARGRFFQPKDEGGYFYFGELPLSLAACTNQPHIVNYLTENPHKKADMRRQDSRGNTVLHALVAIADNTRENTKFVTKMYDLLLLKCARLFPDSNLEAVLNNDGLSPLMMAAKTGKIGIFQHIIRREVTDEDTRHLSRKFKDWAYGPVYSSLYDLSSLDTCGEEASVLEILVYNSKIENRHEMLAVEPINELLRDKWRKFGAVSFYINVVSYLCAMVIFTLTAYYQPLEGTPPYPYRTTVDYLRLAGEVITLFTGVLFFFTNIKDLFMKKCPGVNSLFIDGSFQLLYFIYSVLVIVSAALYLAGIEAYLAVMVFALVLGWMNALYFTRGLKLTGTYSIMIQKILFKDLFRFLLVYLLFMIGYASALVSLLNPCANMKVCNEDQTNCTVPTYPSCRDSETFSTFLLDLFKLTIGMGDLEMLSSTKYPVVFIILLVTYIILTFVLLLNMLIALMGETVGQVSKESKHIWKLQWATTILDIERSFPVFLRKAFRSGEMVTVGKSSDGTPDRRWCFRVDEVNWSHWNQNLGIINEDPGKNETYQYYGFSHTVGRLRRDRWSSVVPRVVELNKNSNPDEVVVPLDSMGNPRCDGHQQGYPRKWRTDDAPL
Assay type: cell-based
Procedure, shortened: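 BHK/AC9 cells transduced with BacMam human TRPV4 (MOI 78), 15,000 cells/well, cultured 24 h at 37 °C. Loaded with 2 μM Fluo-4 AM and 500 μM Brilliant Black in HBSS for 1–1.5 h at room temperature in the dark. Intracellular calcium influx monitored by fluorescence.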
N#Cc1ccc(S(=O)(=O)N2C[C@H](S(=O)(=O)c3ccc(Cl)cn3)[C@](O)(CO)C2)c(Cl)c1 [Example 1, 3-chloro-4-(((3R,4S)-4-((5-chloropyridin-2-yl)sulfonyl)-3-hydroxy-3-(hydroxymethyl)pyrrolidin-1-yl)sulfonyl)benzonitrile] showed an IC50 of 5 nM.

Same assay, conditions: inhibition of Agonist Compound (EC80)-induced calcium signal; BHK/AC9 cells expressing human TRPV4; read-out: IC50
With N#Cc1ccc(S(=O)(=O)[C@H]2CN(S(=O)(=O)c3ccc(Cl)cc3Cl)C[C@@]2(O)CO)c(F)c1 [Example 86, 4-(((3S,4R)-1-((2,4-dichlorophenyl)sulfonyl)-4-hydroxy-4-(hydroxymethyl)pyrrolidin-3-yl)sulfonyl)-3-fluorobenzonitrile] the IC50 was 10 to 100 nM.
Work on Cc1ccc(S(=O)(=O)N2C[C@H](S(=O)(=O)c3ccc(C#N)c(F)c3)[C@](O)(CO)C2)c(Cl)c1 [Example 13, 4-(((3S,4R)-1-((2-chloro-4-methylphenyl)sulfonyl)-4-hydroxy-4-(hydroxymethyl)pyrrolidin-3-yl)sulfonyl)-2-fluorobenzonitrile] yielded an IC50 of 0.1 to 10 nM.
Compound N#Cc1ccc(S(=O)(=O)[C@H]2CN(S(=O)(=O)c3ccc(Cl)cc3Cl)C[C@@]2(O)CO)cc1F [Example 83, 4-(((3S,4R)-1-((2,4-dichlorophenyl)sulfonyl)-4-hydroxy-4-(hydroxymethyl)pyrrolidin-3-yl)sulfonyl)-2-fluorobenzonitrile] has an IC50 of 0.1 to 10 nM.
For N#Cc1ccc(S(=O)(=O)[C@H]2CN(S(=O)(=O)c3ccc(CF)cc3Cl)C[C@@]2(O)CO)cc1 [Example 44, 4-(((3S,4R)-1-((2-chloro-4-(fluoromethyl)phenyl)sulfonyl)-4-hydroxy-4-(hydroxymethyl)pyrrolidin-3-yl)sulfonyl)benzonitrile], the IC50 was 10 to 100 nM.
Work on COc1cc(Br)ccc1S(=O)(=O)N1C[C@H](S(=O)(=O)c2ccc(C#N)cc2)[C@](O)(CO)C1 [Example 52, 4-(((3S,4R)-1-((4-bromo-2-methoxyphenyl)sulfonyl)-4-hydroxy-4-(hydroxymethyl)pyrrolidin-3-yl)sulfonyl)benzonitrile] yielded an IC50 of 10 to 100 nM.
For N#Cc1ccc(S(=O)(=O)N2C[C@H](S(=O)(=O)c3ccc(Cl)cn3)[C@@](O)(CN)C2)c(Cl)c1 [Example 125, 4-(((3R,4S)-3-(aminomethyl)-4-((5-chloropyridin-2-yl)sulfonyl)-3-hydroxypyrrolidin-1-yl)sulfonyl)-3-chlorobenzonitrile], the IC50 was 0.1 to 10 nM.
In the case of N#Cc1ccc(S(=O)(=O)N2C[C@H](S(=O)(=O)c3ccc(C(F)(F)F)cc3)[C@](O)(CO)C2)c(Cl)c1 [Example 54, 3-chloro-4-(((3R,4S)-3-hydroxy-3-(hydroxymethyl)-4-((4-(trifluoromethyl)phenyl)sulfonyl)pyrrolidin-1-yl)sulfonyl)benzonitrile], the IC50 is reported as 0.1 to 10 nM.
O=S(=O)(c1cnc(C(F)(F)F)nc1)[C@H]1CN(S(=O)(=O)c2ccc(Cl)cc2Cl)C[C@@]1(O)CO [Example 108, (3R,4S)-1-((2,4-dichlorophenyl)sulfonyl)-3-(hydroxymethyl)-4-((2-(trifluoromethyl)pyrimidin-5-yl)sulfonyl)pyrrolidin-3-ol] showed an IC50 of 10 to 100 nM.
N#Cc1ccc(S(=O)(=O)[C@H]2CN(S(=O)(=O)c3ccc(C(F)(F)F)cc3Cl)C[C@]2(O)CO)cc1Cl [Example 80, 2-chloro-4-(((3S,4S)-1-((2-chloro-4-(trifluoromethyl)phenyl)sulfonyl)-4-hydroxy-4-(hydroxymethyl)pyrrolidin-3-yl)sulfonyl)benzonitrile] was tested, and the IC50 was 10 to 100 nM.
N#Cc1ccc(S(=O)(=O)N2C[C@H](S(=O)(=O)c3ccc(Br)cc3)[C@@](O)(CO)C2)c(Cl)c1 [Example 24, 4-(((3S,4S)-4-((4-bromophenyl)sulfonyl)-3-hydroxy-3-(hydroxymethyl)pyrrolidin-1-yl)sulfonyl)-3-chlorobenzonitrile] was tested, and the IC50 was 10 to 100 nM.
N#Cc1cc(Cl)ccc1S(=O)(=O)N1C[C@H](S(=O)(=O)c2ccc(Cl)cc2)[C@](O)(CO)C1 [Example 17, 5-chloro-2-(((3R,4S)-4-((4-chlorophenyl)sulfonyl)-3-hydroxy-3-(hydroxymethyl)pyrrolidin-1-yl)sulfonyl)benzonitrile] was tested, and the IC50 was 0.1 to 10 nM.
Cc1cc(C(F)(F)F)ccc1S(=O)(=O)N1C[C@H](S(=O)(=O)c2ccc(C#N)cc2)[C@](O)(CO)C1 [Example 28, 4-(((3S,4R)-4-hydroxy-4-(hydroxymethyl)-1-((2-methyl-4-(trifluoromethyl)phenyl)sulfonyl)pyrrolidin-3-yl)sulfonyl)benzonitrile] gave an IC50 of 10 to 100 nM.
C[C@H](O)[C@]1(O)CN(S(=O)(=O)c2ccc(C#N)cc2Cl)C[C@@H]1S(=O)(=O)c1ccc(Cl)cn1 [Example 119, 3-chloro-4-(((3R,4S)-4-((5-chloropyridin-2-yl)sulfonyl)-3-hydroxy-3-((S)-1-hydroxyethyl)pyrrolidin-1-yl)sulfonyl)benzonitrile] showed an IC50 of 0.1 to 10 nM.
C[C@@H](O)[C@]1(O)CN(S(=O)(=O)c2ccc(C#N)cc2Cl)C[C@@H]1S(=O)(=O)c1ccc(Cl)cn1 [Example 120, 3-chloro-4-(((3R,4S)-4-((5-chloropyridin-2-yl)sulfonyl)-3-hydroxy-3-((R)-1-hydroxyethyl)pyrrolidin-1-yl)sulfonyl)benzonitrile] gave an IC50 of 0.1 to 10 nM.
N#Cc1cc(F)c(S(=O)(=O)[C@H]2CN(S(=O)(=O)c3ccc(Cl)cc3Cl)C[C@@]2(O)CO)cc1F [Example 95, 4-(((3S,4R)-1-((2,4-dichlorophenyl)sulfonyl)-4-hydroxy-4-(hydroxymethyl)pyrrolidin-3-yl)sulfonyl)-2,5-difluorobenzonitrile] showed an IC50 of 10 to 100 nM.
Compound O=S(=O)(c1ccc(C(F)(F)F)cn1)[C@H]1CN(S(=O)(=O)c2ccc(Cl)cc2Cl)C[C@@]1(O)CO [Example 116, (3R,4S)-1-((2,4-dichlorophenyl)sulfonyl)-3-(hydroxymethyl)-4-((5-(trifluoromethyl)pyridin-2-yl)sulfonyl)pyrrolidin-3-ol] has an IC50 of 10 to 100 nM.
Work on N#Cc1ccc(S(=O)(=O)N2C[C@H](S(=O)(=O)c3ccc(Cl)cn3)[C@](O)(CO)C2)c(Cl)c1 [Example 1, 3-chloro-4-(((3R,4S)-4-((5-chloropyridin-2-yl)sulfonyl)-3-hydroxy-3-(hydroxymethyl)pyrrolidin-1-yl)sulfonyl)benzonitrile] yielded an IC50 of 0.1 to 10 nM.
Compound N#Cc1ccc(S(=O)(=O)[C@H]2CN(S(=O)(=O)c3ccc(F)cc3C(F)(F)F)C[C@@]2(O)CO)cc1 [Example 29, 4-(((3S,4R)-1-((4-fluoro-2-(trifluoromethyl)phenyl)sulfonyl)-4-hydroxy-4-(hydroxymethyl)pyrrolidin-3-yl)sulfonyl)benzonitrile] has an IC50 of 0.1 to 10 nM.
N#Cc1ccc(S(=O)(=O)N2C[C@H](S(=O)(=O)c3ccc(Cl)cn3)[C@@]3(CNCCO3)C2)c(Cl)c1 [Example 129, 3-chloro-4-(((4S,5R)-4-((5-chloropyridin-2-yl)sulfonyl)-6-oxa-2,9-diazaspiro[4.5]decan-2-yl)sulfonyl)benzonitrile, Hydrochloride] showed an IC50 of 10 to 100 nM.
N#Cc1ccc(S(=O)(=O)[C@H]2CN(S(=O)(=O)c3ccc(F)cc3Cl)C[C@@]2(O)CO)cc1F [Example 12, 4-(((3S,4R)-1-((2-chloro-4-fluorophenyl)sulfonyl)-4-hydroxy-4-(hydroxymethyl)pyrrolidin-3-yl)sulfonyl)-2-fluorobenzonitrile] showed an IC50 of 0.1 to 10 nM.
With N#Cc1ccc(S(=O)(=O)N2C[C@H](S(=O)(=O)c3ccc(Cl)cc3)[C@@](O)(CO)C2)c(Cl)c1 [Example 23, 3-chloro-4-(((3S,4S)-4-((4-chlorophenyl)sulfonyl)-3-hydroxy-3-(hydroxymethyl)pyrrolidin-1-yl)sulfonyl)benzonitrile] the IC50 was 10 to 100 nM.
N#Cc1ccc(S(=O)(=O)N2C[C@H](S(=O)(=O)c3ccc(Cl)cn3)[C@](O)(CN)C2)c(Cl)c1 [Example 121, 4-(((3S,4S)-3-(aminomethyl)-4-((5-chloropyridin-2-yl)sulfonyl)-3-hydroxypyrrolidin-1-yl)sulfonyl)-3-chlorobenzonitrile] showed an IC50 of 0.1 to 10 nM.
With N#Cc1ccc(S(=O)(=O)N2C[C@H](S(=O)(=O)c3ccc(Cl)cc3)[C@@](O)(CNCC(F)(F)F)C2)c(Cl)c1 [Example 128, 3-chloro-4-(((3R,4S)-4-((4-chlorophenyl)sulfonyl)-3-hydroxy-3-(((2,2,2-trifluoroethyl)amino)methyl)pyrrolidin-1-yl)sulfonyl)benzonitrile] the IC50 was 10 to 100 nM.
Compound O=S(=O)(c1ccc(C(F)(F)F)cc1)[C@H]1CN(S(=O)(=O)c2ccc(C(F)(F)F)cc2Cl)C[C@@]1(O)CO [Example 96, (3R,4S)-1-((2-chloro-4-(trifluoromethyl)phenyl)sulfonyl)-3-(hydroxymethyl)-4-((4-(trifluoromethyl)phenyl)sulfonyl)pyrrolidin-3-ol] has an IC50 of 10 to 100 nM.
CCc1cc(C#N)ccc1S(=O)(=O)N1C[C@H](S(=O)(=O)c2ccc(Cl)cc2)[C@](O)(CO)C1 [Example 46, 4-(((3R,4S)-4-((4-chlorophenyl)sulfonyl)-3-hydroxy-3-(hydroxymethyl)pyrrolidin-1-yl)sulfonyl)-3-ethylbenzonitrile] showed an IC50 of 10 to 100 nM.
For Cc1nc(C(F)(F)F)ccc1S(=O)(=O)N1C[C@H](S(=O)(=O)c2ccc(C#N)c(F)c2)[C@](O)(CO)C1 [Example 72, 2-fluoro-4-(((3S,4R)-4-hydroxy-4-(hydroxymethyl)-1-((2-methyl-6-(trifluoromethyl)pyridin-3-yl)sulfonyl)pyrrolidin-3-yl)sulfonyl)benzonitrile], the IC50 was 10 to 100 nM.
